Experimental findings from patent US20070088043A1, “Novel HDAC inhibitors” (ORCHID RESEARCH LABORATORIES LIMITED., priority 2005, published 2007) are described below.

Each structure is given as a SMILES string.

The test system of data set [1] is HCT 116 cells. The data set can be described thus: Anti-cancer screen (MTT), HCT116. The format is cell-based. On the set-up: HCT116 TGI: unit: uM. As to conditions: for GI50: concentration to decrease % growth by 50%; for IC100: read-out: HCT116 TGI; for LC50: concentration to decrease % growth by 150%. As for the experimental part:
(§1) Experimental drugs are screened for anti-cancer activity in three cell lines for their GI50, TGI and LC50 values (using five concentrations for each compound). The cell lines are maintained in DMEM containing 10% fetal bovine serum. 96 well micro titer plates are inoculated with cells in 100 μL for 24 h at 37° C., 5% CO2, 95% air and 100% relative humidity. 5000 HCT 116 cells/well, 5000 NCIH 460 cells/well and 5000 U251 cells/well are plated. A separate plate with these cell lines is also inoculated to determine cell viability before the addition of the compounds (T0).
(§2) Following 24-hour incubation, experimental drugs are added to the 96 well plates. Each plate contains one of the above cell lines and the following in triplicate: five different concentrations (0.01, 0.1, 1, 10 and 100 μM) of four different compounds, appropriate dilutions of a cytotoxic standard and control (untreated) wells. Compounds are dissolved in DMSO to make 20 mM stock solutions on the day of drug addition and frozen at −20° C. Serial dilutions of these 20 mM stock solutions are made in complete growth medium such that 100 μL of these drug solutions in medium, of final concentrations equaling 0.01, 0.1, 1, 10 and 100 μM can be added to the cells in triplicate. Standard drugs whose anti-cancer activity has been well documented and which are regularly used are doxorubicin and SAHA.
(§3) For To measurement, 24 hours after seeding the cells, 10 μL of 3-(4,5-Dimethyl-2-thiazolyl)-2,5-diphenyl-2H-tetrazolium (MTT) solution per well is added and incubation carried out for 3 hours at 37° C., 5% CO2, 95% air and 100% relative humidity, protected from light. Cells incubated with compounds for 48 hours are treated similarly except with the addition of 20 μL MTT solution per well and a subsequent incubation under the same conditions. After 3 hours of MTT incubation, well contents are aspirated carefully followed by addition of 150 μL DMSO per well. Plates are agitated to ensure solution of the formazan crystals in DMSO and absorbance read at 570 nm. […]

The subject of data set [2] is NCIH 460 cells. Nature of the data set: Anti-cancer screen (MTT), NCIH460. The format is cell-based. Further details: NCIH460 TGI: unit: uM. As to conditions: for GI50: concentration to decrease % growth by 50%; for IC100: read-out: NCIH460 TGI; for LC50: concentration to decrease % growth by 150%. The procedure: as §1, §2, §3
Data set [3] concerns NCIH460, HCT116, MDAMB231/U251. The data set can be described thus: Anti-cancer screen, mean GI50 over the cell lines. In kind it is cell-based. The following applies: in µM. As for the experimental part:
as §1, §2, §3

Data set [4] concerns MDAMB231/U251. The data set can be described thus: Anti-cancer screen (MTT), MDAMB231/U251. The format is cell-based. On the set-up: MDAMB231/U251 TGI: unit: uM. As to conditions: MDAMB231/U251 cells, 48 hours; for GI50: concentration to decrease % growth by 50%; for IC100: read-out: MDAMB231/U251 TGI; for LC50: concentration to decrease % growth by 150%. As for the experimental part: as §1, §2, §3

Data set [5] concerns HDAC (Mouse Liver Extract). The data set can be described thus: Histone Deacetylase (HDAC) Inhibition Assay using Boc-Lys (Ac)-AMC Substrate. In kind it is biochemical. The following applies: mouse liver enzyme, NA = No Activity, in % (unit assumed). The source says:
HDAC Activitv Screening: Histone Deacetylase (HDAC) Inhibition Assay using Boc-Lys (Ac)-AMC Substrate:
Inhibition of HDAC has been implicated to modulate transcription and to induce apoptosis or differentiation in cancer cells. The fluorometric assay provides a fast and fluorescence based method that eliminates radioactivity, extractions or chromatography, as used in traditional assays. The assay based on two steps. First, the HDAC fluorometric substrate, which comprises an acetylated lysine side chain, is incubated with a sample containing HDAC activity (Mouse Liver Extract). Deacetylation of the substrate sensitizes the substrate, in the second step; treatment with the Trypsin stop solution produces a fluorophore that can be easily analyzed using fluorescence plate reader.
Assay was done in 96 well black microplate and total volume of the assay is 100 ul. Mouse liver enzyme is diluted 1:6 with HDAC buffer. Enzyme cocktail made of 10 ul of diluted enzyme and 30 ul of HDAC buffer. 40 ul of enzyme cocktail dispensed into each well. 10 ul of different concentrations of inhibitor added in to each well, except enzyme control well. Preincubated the plate at 30° C. for 5 minutes. The HDAC reaction is started by adding 50 ul of HDAC substrate (Boc-Lys (Ac)-AMC Substrate) solution. Incubated the plate at 30° C. for 30 minutes. Adding 100 ul of Trypsin stop solution stops the reaction. The plate is incubated again at 30° C. for 20-30 minutes. The release of AMC is monitored by measuring the fluorescence at excitation wavelength of 365 or 360 nm and emission wavelength of 440 or 460 nm. Buffer and substrate alone kept for blank subtraction. (Dennis Wegener et al, Anal. Biochem, 321, 2003, 202-208).

Setting [6] is: Homo sapiens, HCT-116, HCT116 cells, 48 hours, MTT.
The mark [7] stands for this setting: Homo sapiens, HCT-116, HCT116 cells, 48 hours, MTT, concentration to decrease % growth by 100%.
Where [8] appears, read: Homo sapiens, NCI-H460, NCIH460 cells, 48 hours, MTT.
Where [9] appears, read: Homo sapiens, NCI-H460, NCIH460 cells, 48 hours, MTT, concentration to decrease % growth by 100%.
The mark [10] stands for this setting: concentration to decrease % growth by 100%.

Broadly, the GI50 is the concentration giving 50% growth inhibition. A word on the LC50: it is the concentration that kills 50% of the test population. As to `Cc1ccc2nc(NC(=O)CN3CCN(C(=O)CCCCCCC(=O)NO)CC3)sc2c1` [Example 35, 8-{4-[2-(6-Methyl-1,3-benzothiazol-2-ylamino)-2-oxoethyl]piperazin-1-yl}-N-hydroxy-8-oxo octanamide], the results for the GI50 in data set [1] (setting [6]), in data set [2] (setting [8]) and in data set [4] were 8 µM, 56 µM and 5 µM, respectively. The IC100 is 40 µM in data set [1] (setting [7]), 100 µM in data set [2] (setting [9]) and 45 µM in data set [4] (setting [10]). Besides, the LC50 in data set [1] (setting [6]) is 92 µM; in data set [2] (setting [8]), above 100 µM; in data set [4] it was above 100 µM. For the same compound, the “Mean GI50” value in data set [3] is 23. The “HDAC Inhibition 1 μM” value in data set [5] is recorded as 68.3. Moreover, the “HDAC Inhibition 10 μM” value in data set [5] was 96.93.

`O=C(CCCCCCC(=O)N1CCN(CC(=O)Nc2ccccc2)CC1)NO` [Example 31, 8-{4-[2-(Phenyl-2-ylamino)-2-oxoethyl]piperazin-1-yl}-N-hydroxy-8-oxo octanamide]: the GI50 was found to be 60 µM in data set [1] (setting [6]), 60 µM in data set [2] (setting [8]) and 0.6 µM in data set [4]. The IC100 was above 100 µM in data set [1] (setting [7]), above 100 µM in data set [2] (setting [9]) and 94 µM in data set [4] (setting [10]). Further, the LC50 in data set [1] (setting [6]), in data set [2] (setting [8]) and in data set [4] was above 100 µM throughout. The “Mean GI50” value in data set [3] was found to be 40.20. In addition, the “HDAC Inhibition 1 μM” value in data set [5] was found to be 45.20. Further, the “HDAC Inhibition 10 μM” value in data set [5] was determined as 84.96.

With `Cc1csc(NC(=O)CN2CCN(C(=O)CCCCCCC(=O)NO)CC2)n1` [Example 33, 8-{4-[2-(4-Methyl-1,3-thiazol-2-ylamino)-2-oxoethyl]piperazin-1-yl}-N-hydroxy-8-oxo octanamide], the GI50 in data set [1] (setting [6]) is 55 µM; in data set [2] (setting [8]) it was 90 µM; in data set [4], 10 µM. Further, the figures for the IC100 in data set [1] (setting [7]), in data set [2] (setting [9]) and in data set [4] (setting [10]) were above 100 µM, above 100 µM and 98 µM, respectively. For the same compound, the LC50 in data set [1] (setting [6]), in data set [2] (setting [8]) and in data set [4] was above 100 µM in each case. The “Mean GI50” value in data set [3] came to 51.67. Also, in data set [5], the “HDAC Inhibition 1 μM” value is 50.09. In data set [5], the “HDAC Inhibition 10 μM” value stood at 92.38.

`CC(=O)SCCCCC(=O)N1CCN(CC(=O)Nc2ncc([N+](=O)[O-])s2)CC1` [Example 9]: the GI50 in data set [1] (setting [6]), in data set [2] (setting [8]) and in data set [4] was above 100 µM in each case. For the same compound, the IC100 in data set [1] (setting [7]), in data set [2] (setting [9]) and in data set [4] (setting [10]) was above 100 µM each time. Further, the LC50 in data set [1] (setting [6]), in data set [2] (setting [8]) and in data set [4] was above 100 µM in each case. In data set [3], the “Mean GI50” value is above 100. Also, in data set [5], the “HDAC Inhibition 1 μM” value worked out at 3.39. In addition, the “HDAC Inhibition 10 μM” value in data set [5] was 23.65.

On to `CC(=O)SCCCCCC(=O)N1CCN(CC(=O)N2CCOCC2)CC1` [Example 19, 2-[4-(6-Thioacetylhexanoyl)piperazin-1-yl]-N-(morpholine)acetamide], for which the GI50 in data set [1] (setting [6]) is above 100 µM; in data set [2] (setting [8]), above 100 µM; in data set [4], 57 µM. Besides, the IC100 in data set [1] (setting [7]), in data set [2] (setting [9]) and in data set [4] (setting [10]) was above 100 µM throughout. For the same compound, the LC50 in data set [1] (setting [6]), in data set [2] (setting [8]) and in data set [4] was above 100 µM throughout. Moreover, the “Mean GI50” value in data set [3] is listed as above 100. Moreover, in data set [5], the “HDAC Inhibition 1 μM” value came to 18.82. In addition, in data set [5], the “HDAC Inhibition 10 μM” value is 51.25.

For the compound `COc1cc(CNC(=O)CN2CCN(C(=O)CCCCSC(C)=O)CC2)cc(OC)c1` [Example 20], the GI50 in data set [1] (setting [6]), in data set [2] (setting [8]) and in data set [4] was above 100 µM in each case. Moreover, the IC100 in data set [1] (setting [7]), in data set [2] (setting [9]) and in data set [4] (setting [10]) was above 100 µM each time. The LC50 in data set [1] (setting [6]), in data set [2] (setting [8]) and in data set [4] was above 100 µM throughout. The “Mean GI50” value in data set [3] is listed as above 100. Besides, the “HDAC Inhibition 1 μM” value in data set [5] stood at 26.4. Moreover, the “HDAC Inhibition 10 μM” value in data set [5] was 55.4.

For the compound `CC(=O)SCCCCCC(=O)N1CCN(C(=O)CN2CCOCC2)CC1` [Example 2], the GI50 in data set [1] (setting [6]), in data set [2] (setting [8]) and in data set [4] was above 100 µM in each case. The IC100 in data set [1] (setting [7]), in data set [2] (setting [9]) and in data set [4] (setting [10]) was above 100 µM throughout. Also, the LC50 in data set [1] (setting [6]), in data set [2] (setting [8]) and in data set [4] was above 100 µM each time. The “Mean GI50” value in data set [3] is given as above 100. Moreover, the “HDAC Inhibition 1 μM” value in data set [5] came out at 8.31. In addition, in data set [5], the “HDAC Inhibition 10 μM” value is listed as 34.56.

For orientation: CC50 means the concentration that lowers cell viability or growth by half. Regarding `CCOc1ccc2nc(NC(=O)CN3CCN(C(=O)CCCCCCC(=O)NO)CC3)sc2c1` [Example 32, 8-{4-[2-(6-Ethoxy-1,3-benzothiazol-2-ylamino)-2-oxoethyl]piperazin-1-yl}-N-hydroxy-8-oxo octanamide], the CC50 was 95 µM in data set [1] and above 100 µM in data set [2]. Besides, the GI50 in data set [1] (HCT116 cells, 48 hours, MTT) came to 7 µM; in data set [2] (NCIH460 cells, 48 hours, MTT), 38 µM; in data set [4] it was 1.5 µM. In data set [1] (HCT116 cells, 48 hours, MTT, concentration to decrease % growth by 100%), the “HCT116 TGI” value turned out to be 42. The “NCIH460 TGI” value in data set [2] (NCIH460 cells, 48 hours, MTT, concentration to decrease % growth by 100%) amounted to 72. Moreover, the “Mean GI50” value in data set [3] is 15.50. In addition, the “MDAMB231/U251 TGI” value in data set [4] (setting [10]) was determined as 9.5. Further, the LC50 in data set [4] was found to be 98 µM. In addition, the “HDAC Inhibition 1 μM” value in data set [5] came to 60.30. Besides, in data set [5], the “HDAC Inhibition 10 μM” value is on record as 98.91.

For the compound `CC(=O)SCCCCCC(=O)N1CCN(CC(=O)Nc2nc3ccc(C)cc3s2)CC1` [Example 12, 2-[4-(6-Thioacetylhexanoyl)piperazin-1-yl]-N-(6-methyl-1,3-benzothiazol-2-yl)acetamide], the GI50 in data set [1] (setting [6]) came to 7 µM; in data set [2] (setting [8]) it was 25 µM; in data set [4], 19 µM. For the same compound, the IC100 in data set [1] (setting [7]) was above 100 µM; in data set [2] (setting [9]), 75 µM; in data set [4] (setting [10]) it was 65 µM. Moreover, the LC50 in data set [1] (setting [6]) is at least 100 µM; in data set [2] (setting [8]), above 100 µM; in data set [4], above 100 µM. Also, the “Mean GI50” value in data set [3] is on record as 17. The “HDAC Inhibition 1 μM” value in data set [5] is listed as 57.31. In addition, the “HDAC Inhibition 10 μM” value in data set [5] came out at 85.59.
